From patent publication EP4635949A1 (Jiangsu NHWA Pharmaceutical Co., Ltd, priority 2022, dated 2024)
Where two headings read alike, the source gives them in different places. Marks after values point to notes of the source that are not given here.

What was measured:
OX2 receptor = biological target: T1, OX2 receptor (Homo sapiens, UniProt O43614); test: Orexin target function test (Cisbio HTRF IP-one), CHO-K1-OX2 cells, antagonism of EC80 Orexin 2 receptor agonist; type: cell-based
T1 construct: host or cells: CHO-K1
T1 sequence (O43614 1-444): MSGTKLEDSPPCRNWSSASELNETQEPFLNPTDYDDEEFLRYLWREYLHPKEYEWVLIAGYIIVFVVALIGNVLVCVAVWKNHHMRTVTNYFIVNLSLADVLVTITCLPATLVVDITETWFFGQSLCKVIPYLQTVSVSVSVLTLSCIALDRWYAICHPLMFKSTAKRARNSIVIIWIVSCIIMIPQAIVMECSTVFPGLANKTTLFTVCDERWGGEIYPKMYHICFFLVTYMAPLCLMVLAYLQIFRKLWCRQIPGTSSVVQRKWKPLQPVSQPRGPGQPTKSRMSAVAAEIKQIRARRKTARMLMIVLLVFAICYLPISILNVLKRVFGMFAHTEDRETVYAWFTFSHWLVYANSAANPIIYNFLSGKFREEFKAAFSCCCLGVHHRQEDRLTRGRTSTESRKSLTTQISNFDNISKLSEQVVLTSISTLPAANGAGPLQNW
Procedure: (§1) Using Cisbio HTRF IP-one kit to detect the changes in IP-one concentration of orexin receptor (OX1/OX2) signaling pathway by microplate reader, and calculating the IC50 value of the compound to evaluate the antagonistic effect of the compound on OX1 and OX2 receptors.
(§2) The cells were centrifuged at 1000 rpm for 5 minutes and the supernatant was discarded. 3 mL of PBS was added, and gently blown with a pipette to mix. After centrifugation at 1000 rpm for 5 minutes again, the supernatant was discarded. […] Based on the antagonistic effect values of the compound samples at different concentrations, the GraphPad Prism software was used to fit the orexin receptor antagonism curve of the compound samples and calculate the IC50.

OX1 receptor = biological target: T2, OX1 receptor (Homo sapiens, UniProt O43613); test: Orexin target function test (Cisbio HTRF IP-one), CHO-K1-OX1 cells, antagonism of EC80 Orexin A; type: cell-based
T2 construct: host or cells: CHO-K1
T2 sequence (O43613 1-425): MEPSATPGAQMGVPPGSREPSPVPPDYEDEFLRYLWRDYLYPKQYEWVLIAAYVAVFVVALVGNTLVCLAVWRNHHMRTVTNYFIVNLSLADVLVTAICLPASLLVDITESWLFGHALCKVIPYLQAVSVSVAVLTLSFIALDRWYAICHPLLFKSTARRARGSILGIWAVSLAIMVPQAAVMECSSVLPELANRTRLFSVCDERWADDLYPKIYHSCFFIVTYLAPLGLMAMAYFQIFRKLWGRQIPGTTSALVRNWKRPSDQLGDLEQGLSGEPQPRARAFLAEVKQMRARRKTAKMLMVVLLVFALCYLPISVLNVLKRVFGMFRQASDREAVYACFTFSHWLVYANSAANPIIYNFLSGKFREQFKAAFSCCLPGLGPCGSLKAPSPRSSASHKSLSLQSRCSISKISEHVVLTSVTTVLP
Procedure: as §1, §2

SD rats = test: Autonomous activity of rats; type: in vivo; settings: rat, in vivo
Procedure: The animals were placed in the test box immediately after administration, and the activity distance of the animals within 60 minutes was recorded and analyzed using Top Scan Version 3.0. […] The experimental data were expressed by mean ± standard deviation (Mean ± SD), and SPSS 21.0 statistical software was used for one-way analysis of variance. The Dunnett's test was used for pairwise comparison, and p<0.05 was represented as *.

in vivo [1] = settings: rat
[2] = Blood-brain barrier permeability of the test substance in rats; settings: male, SD, rat, oral, 30 mg/kg; for Kp at 0.25 h: brain/plasma
[3] = male, SD, rat, in vivo, 30 mg/kg
in vivo [4] = settings: male, SD, rat, 30 mg/kg
[5] = CHO-K1-OX2 cells, IP-one, read-out: hOX2R IC50
[6] = CHO-K1-OX1 cells, IP-one, read-out: hOXIR IC50

Compound | IC50 (OX2 receptor; [5]) | IC50 (OX1 receptor; [6]) | concentration at 0.25 h ([2]; brain) | Kp at 0.25 h [2] | concentration at 0.25 h ([2]; plasma) | IC50 (OX2 receptor) | Selectivity (OX2 receptor) | IC50 (OX1 receptor) | other results
COc1cc(-n2nccn2)c(C(=O)N2CC3C=C(c4nc(C)c(F)c(C)n4)CC3C2)cn1 (stereo not shown) [Compound 22] |  |  |  |  |  | 15 nM | 185 | 2780 nM | Activity distance (mm) (SD rats; 10 mg/kg): 43970.97±9243.91 mm; Inhibition rate(%) (SD rats; 10 mg/kg): 38.10* %; Activity distance (mm) (SD rats; 30 mg/kg): 37396.46±6850.26 mm; Inhibition rate(%) (SD rats; 30 mg/kg): 47.35* %; Activity distance (mm) (SD rats; 50 mg/kg): 33132.59±9708.72 mm; Inhibition rate(%) (SD rats; 50 mg/kg): 56.36* %; AUC(0-t) (in vivo [1]; in vivo, iv, 1 mg/kg): 305 ng·h/mL; Cmax (in vivo [1]; in vivo, iv, 1 mg/kg): 943 ng/mL; AUC(0-t) (in vivo [1]; in vivo, po, 30 mg/kg): 2640 ng·h/mL; Cmax (in vivo [1]; in vivo, po, 30 mg/kg): 1940 ng/mL; bioavailability (in vivo [1]; in vivo, po, 30 mg/kg): 28.9%
COc1ncc(C)nc1C1=CC2CN(C(=O)c3c(F)cccc3-n3nccn3)CC2C1 (stereo not shown) [Compound 39, (2-fluoro-6-(2H-1,2,3-triazol-2-yl)phenyl)(5-(3-methoxy-6-methylpyrazin-2-yl)-3,3a,4,6a-tetrahydrocyclopenta[c]pyrrol-2(1H)-yl)methanone] | 20 nM | 1200 nM | 285 ng/g | 0.28 | 1020 ng/mL |  | 60 |  | 
COc1cc(C(=O)N2CC3C=C(c4nc(C)cnc4OC)CC3C2)c(-n2nccn2)cn1 (stereo not shown) [Compound 42, (2-methoxy-5-(2H-1,2,3-triazol-2-yl)pyridin-4-yl)(5-(3-methoxy-6-methylpyrazin-2-yl)-3,3a,4,6a-tetrahydrocyclopenta[c]pyrrol-2(1H)-yl)methanone] | 24 nM | 1300 nM | 193 ng/g | 0.52 | 372 ng/mL |  | 54 |  | 
COc1ncc(C)nc1C1=CC2CN(C(=O)c3ccc(F)cc3-n3nccn3)CC2C1 (stereo not shown) [Compound 44, [4-fluoro-2-(2H-1,2,3-triazol-2-yl)phenyl][5-(3-methoxy-6-methylpyrazin-2-yl)-3,3a,4,6a-tetrahydrocyclopenta[c]pyrrol-2(1H)-yl]methanone] |  |  |  |  |  | 18 nM | 133 | 2400 nM | Brain [3]: 231.3 ng/g; Plasma [3]: 235.6 ng/mL; Kp (in vivo [4]): 0.98

Second part, led by results:

IC50 (OX2 receptor; [5]) | IC50 (OX1 receptor; [6]) | concentration at 0.25 h ([2]; brain) | Kp at 0.25 h [2] | concentration at 0.25 h ([2]; plasma) | Compound | IC50 (OX2 receptor) | Selectivity (OX2 receptor) | IC50 (OX1 receptor) | other results
19 nM | 1650 nM | 990 ng/g | 0.39 | 2570 ng/mL | COc1ccc(C(=O)N2CC3C=C(c4nc(C)cnc4OC)CC3C2)c(-n2nccn2)c1 (stereo not shown) [Compound 41, (4-methoxy-2-(2H-1,2,3-triazol-2-yl)phenyl)(5-(3-methoxy-6-methylpyrazin-2-yl)-3,3a,4,6a-tetrahydrocyclopenta[c]pyrrol-2(1H)-yl)methanone] |  | 87 |  | AUC(0-t) (in vivo [1]; male, SD, plasma, iv, 1 mg/kg): 389 ng·h/mL; Cmax (in vivo [1]; male, SD, plasma, iv, 1 mg/kg): 706 ng/mL; AUC(0-t) (in vivo [1]; male, SD, plasma, po, 30 mg/kg): 5600 ng·h/mL; Cmax (in vivo [1]; male, SD, plasma, po, 30 mg/kg): 3980 ng/mL; bioavailability (in vivo [1]; male, SD, plasma, po, 30 mg/kg): 48%
 |  | 210 ng/g | 0.43 | 485 ng/mL | CCOc1ncc(C)nc1C1=CC2CN(C(=O)c3ccc(OC)cc3-n3nccn3)CC2C1 (stereo not shown) [Compound 46, [5-(3-ethoxy-6-methylpyrazin-2-yl)-3,3a,4,6a-tetrahydrocyclopenta[c]pyrrol-2(1H)-yl][4-methoxy-2-(2H-1,2,3-triazol-2-yl)phenyl]methanone] |  |  |  | 
